In ChEMBL document CHEMBL2380311 (Bioorg Med Chem Lett, 2013) one finds IC50 and inhibition data, which are given here for 15 compounds.

For one assay, the target named is Cholinesterase (Equus caballus, UniProt P81908).
The target in a further assay is Acetylcholinesterase (Electrophorus electricus, UniProt O42275).
Assay [1] has as its target Cholinesterase (Equus caballus) (UniProt P81908). In words: Mixed-type inhibition of equine serum BChE using butyrylthiocholine iodide as substrate by Lineweaver-Burk reciprocal plot analysis.

Active and inactive are the calls of the source. No cut-off for these calls is given here.

Acetylcholinesterase, sequence (O42275 whole entry): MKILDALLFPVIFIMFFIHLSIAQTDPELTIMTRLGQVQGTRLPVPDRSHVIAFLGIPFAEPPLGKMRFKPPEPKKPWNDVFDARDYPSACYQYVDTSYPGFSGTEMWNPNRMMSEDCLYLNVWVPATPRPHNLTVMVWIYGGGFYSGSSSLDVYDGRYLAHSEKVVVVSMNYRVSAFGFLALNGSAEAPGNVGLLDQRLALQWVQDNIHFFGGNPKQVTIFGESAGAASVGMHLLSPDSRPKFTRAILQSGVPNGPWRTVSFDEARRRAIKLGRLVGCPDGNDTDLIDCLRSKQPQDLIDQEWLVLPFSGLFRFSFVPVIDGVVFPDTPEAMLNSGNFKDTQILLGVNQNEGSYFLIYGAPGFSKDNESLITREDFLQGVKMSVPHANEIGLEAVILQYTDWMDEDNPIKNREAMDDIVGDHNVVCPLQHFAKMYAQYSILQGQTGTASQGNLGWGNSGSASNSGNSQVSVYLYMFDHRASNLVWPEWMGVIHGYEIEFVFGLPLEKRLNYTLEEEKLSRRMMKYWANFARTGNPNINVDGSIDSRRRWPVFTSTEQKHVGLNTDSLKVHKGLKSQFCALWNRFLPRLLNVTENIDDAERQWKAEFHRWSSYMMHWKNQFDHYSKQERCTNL
Cholinesterase, sequence (P81908 whole entry): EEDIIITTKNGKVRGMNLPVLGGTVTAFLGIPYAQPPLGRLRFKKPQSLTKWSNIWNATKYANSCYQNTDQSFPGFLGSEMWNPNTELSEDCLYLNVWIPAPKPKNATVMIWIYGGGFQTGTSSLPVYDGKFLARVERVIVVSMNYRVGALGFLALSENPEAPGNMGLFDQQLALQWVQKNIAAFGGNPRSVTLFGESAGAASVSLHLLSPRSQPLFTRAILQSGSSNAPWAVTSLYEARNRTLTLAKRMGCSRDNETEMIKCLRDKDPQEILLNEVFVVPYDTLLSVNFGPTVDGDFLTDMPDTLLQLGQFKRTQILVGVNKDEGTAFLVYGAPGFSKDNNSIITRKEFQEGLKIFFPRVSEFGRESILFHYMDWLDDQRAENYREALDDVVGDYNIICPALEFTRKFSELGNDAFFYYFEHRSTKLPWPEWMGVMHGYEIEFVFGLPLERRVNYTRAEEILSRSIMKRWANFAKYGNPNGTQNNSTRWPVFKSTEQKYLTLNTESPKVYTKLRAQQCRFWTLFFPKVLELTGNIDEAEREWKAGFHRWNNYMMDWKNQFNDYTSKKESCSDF
Cholinesterase (Equus caballus), sequence (P81908 whole entry): as above
Description for Acetylcholinesterase: Inhibition of electric eel AChE using acetylthiocholine iodide as substrate after 5 mins by Ellman's method

For `CC(C(=O)NCCCCNc1c2c(nc3ccccc13)CCCC2)c1ccc(-c2ccc(OCCCCO[N+](=O)[O-])cc2)c(F)c1` (stereo unspecified), the IC50 (commonly the midpoint of a concentration-inhibition curve) at Cholinesterase amounted to 0.0077 µM; on Acetylcholinesterase, 0.641 µM.
For the compound `CC(C(=O)NCCNc1c2c(nc3ccccc13)CCCC2)c1ccc(-c2ccc(OCCCCO[N+](=O)[O-])cc2)c(F)c1` (stereo unspecified), the IC50 at Cholinesterase is 0.0101 µM; on Acetylcholinesterase, 1.35 µM.
In the case of `CC(C(=O)NCCCCNc1c2c(nc3ccccc13)CCCC2)c1ccc(-c2ccccc2)c(F)c1` (stereo unspecified), the values for the IC50 against Cholinesterase and on Acetylcholinesterase were 0.011 µM and 0.193 µM, respectively.
`CC(C(=O)NCCCNc1c2c(nc3ccccc13)CCCC2)c1ccc(-c2ccc(OCCCCO[N+](=O)[O-])cc2)c(F)c1` (stereo unspecified): the IC50 on Cholinesterase came to 0.0079 µM; at Acetylcholinesterase, 0.357 µM.
As to `CC(C(=O)NCCNc1c2c(nc3ccccc13)CCCC2)c1ccc(-c2ccc(OCCCCCCO[N+](=O)[O-])cc2)c(F)c1` (stereo unspecified), the IC50 against Cholinesterase was 0.0076 µM; on Acetylcholinesterase it was 4.31 µM. Besides, in assay [1], the inhibition result was “Active”.
As for `CC(C(=O)NCCCCNc1c2c(nc3ccccc13)CCCC2)c1ccc(-c2ccc(OCCCCCCO[N+](=O)[O-])cc2)c(F)c1` (stereo unspecified), the IC50 against Cholinesterase stood at 0.0039 µM; at Acetylcholinesterase it was 1.46 µM.
Take `CC(C(=O)NCCCNc1c2c(nc3ccccc13)CCCC2)c1ccc(-c2ccccc2)c(F)c1` (stereo unspecified): the IC50 came to 0.0139 µM against Cholinesterase and 0.345 µM at Acetylcholinesterase.
Regarding `CC(C(=O)NCCCCNc1c2c(nc3ccccc13)CCCC2)c1ccc(-c2ccc(OCCCO[N+](=O)[O-])cc2)c(F)c1` (stereo unspecified), the IC50 at Cholinesterase came to 0.0106 µM; against Acetylcholinesterase, 0.261 µM.
Consider `CC(C(=O)NCCNc1c2c(nc3ccccc13)CCCC2)c1ccc(-c2ccc(OCCCO[N+](=O)[O-])cc2)c(F)c1` (stereo unspecified), for which the IC50 on Cholinesterase stood at 0.01 µM; against Acetylcholinesterase, 0.341 µM.
As to `CC(C(=O)NCCCCNc1c2c(nc3ccccc13)CCCC2)c1ccc(-c2ccc(OCCO[N+](=O)[O-])cc2)c(F)c1` (stereo unspecified), the concentration for half-maximal inhibition (IC50) was 0.0139 µM against Cholinesterase and 0.227 µM at Acetylcholinesterase.
In the case of `CC(C(=O)NCCNc1c2c(nc3ccccc13)CCCC2)c1ccc(-c2ccc(OCCO[N+](=O)[O-])cc2)c(F)c1` (stereo unspecified), the results for the IC50 against Cholinesterase and against Acetylcholinesterase were 0.0099 µM and 0.183 µM, respectively.
Turning to `CC(C(=O)NCCNc1c2c(nc3ccccc13)CCCC2)c1ccc(-c2ccccc2)c(F)c1` (stereo unspecified), the IC50 stood at 0.0587 µM against Cholinesterase and 0.715 µM on Acetylcholinesterase.
Taken in the same sequence, the figures for `CC(C(=O)NCCCNc1c2c(nc3ccccc13)CCCC2)c1ccc(-c2ccc(OCCO[N+](=O)[O-])cc2)c(F)c1` (stereo unspecified) were 0.0081 µM and 0.112 µM.
For the compound `CC(C(=O)NCCCNc1c2c(nc3ccccc13)CCCC2)c1ccc(-c2ccc(OCCCCCCO[N+](=O)[O-])cc2)c(F)c1` (stereo unspecified), the figures for the IC50 at Cholinesterase and on Acetylcholinesterase were 0.0081 µM and 1.01 µM, respectively.
`CC(C(=O)NCCCNc1c2c(nc3ccccc13)CCCC2)c1ccc(-c2ccc(OCCCO[N+](=O)[O-])cc2)c(F)c1` (stereo unspecified): the figures for the half-maximal inhibitory concentration (IC50) at Cholinesterase and at Acetylcholinesterase were 0.0086 µM and 0.189 µM, respectively.
